The numbers were not newly measured in patent US20080138409A1, “OLANZAPINE PHARMACEUTICAL COMPOSITION” (priority 2006, published 2008), which cites them from elsewhere.

The conditions of this data set: pH 6.8; free base.

In the case of `Cc1cc2c(s1)Nc1ccccc1N=C2N1CCN(C)CC1` [Olanzapine], the solubility entry is listed as “about 0.02 mg/ml”.
